Measurements: article PMC6759397 (Journal of pharmaceutical sciences, 2019)
Where two headings read alike, the source gives them in different places.

Assays:
[1] = biological target: T1, OATP1B3 (Homo sapiens, UniProt Q9NPD5); conditions: cited from earlier work
T1 sequence (Q9NPD5 1-702): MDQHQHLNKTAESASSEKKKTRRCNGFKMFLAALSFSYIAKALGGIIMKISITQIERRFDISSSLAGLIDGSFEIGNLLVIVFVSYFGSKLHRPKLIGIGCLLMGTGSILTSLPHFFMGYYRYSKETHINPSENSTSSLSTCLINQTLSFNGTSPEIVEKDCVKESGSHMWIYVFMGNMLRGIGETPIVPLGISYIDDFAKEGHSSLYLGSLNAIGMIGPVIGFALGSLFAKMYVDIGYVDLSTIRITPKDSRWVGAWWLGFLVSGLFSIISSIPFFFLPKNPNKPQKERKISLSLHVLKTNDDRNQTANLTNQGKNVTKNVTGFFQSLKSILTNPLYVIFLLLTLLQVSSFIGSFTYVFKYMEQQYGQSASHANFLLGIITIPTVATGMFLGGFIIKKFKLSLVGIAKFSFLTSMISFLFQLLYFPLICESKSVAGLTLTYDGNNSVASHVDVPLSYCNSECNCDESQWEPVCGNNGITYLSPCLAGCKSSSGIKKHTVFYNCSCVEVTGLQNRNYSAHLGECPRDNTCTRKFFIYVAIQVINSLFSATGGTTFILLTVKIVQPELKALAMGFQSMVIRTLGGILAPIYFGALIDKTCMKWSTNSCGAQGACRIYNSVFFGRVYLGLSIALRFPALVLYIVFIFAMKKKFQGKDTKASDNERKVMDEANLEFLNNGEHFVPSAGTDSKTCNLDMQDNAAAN

[2] = biological target: T2, OATP1B1 (Homo sapiens, UniProt Q9Y6L6); conditions: read-out: reported Km for OATP1B1; HEK293 cells; cited from earlier work
T2 sequence (Q9Y6L6 1-691): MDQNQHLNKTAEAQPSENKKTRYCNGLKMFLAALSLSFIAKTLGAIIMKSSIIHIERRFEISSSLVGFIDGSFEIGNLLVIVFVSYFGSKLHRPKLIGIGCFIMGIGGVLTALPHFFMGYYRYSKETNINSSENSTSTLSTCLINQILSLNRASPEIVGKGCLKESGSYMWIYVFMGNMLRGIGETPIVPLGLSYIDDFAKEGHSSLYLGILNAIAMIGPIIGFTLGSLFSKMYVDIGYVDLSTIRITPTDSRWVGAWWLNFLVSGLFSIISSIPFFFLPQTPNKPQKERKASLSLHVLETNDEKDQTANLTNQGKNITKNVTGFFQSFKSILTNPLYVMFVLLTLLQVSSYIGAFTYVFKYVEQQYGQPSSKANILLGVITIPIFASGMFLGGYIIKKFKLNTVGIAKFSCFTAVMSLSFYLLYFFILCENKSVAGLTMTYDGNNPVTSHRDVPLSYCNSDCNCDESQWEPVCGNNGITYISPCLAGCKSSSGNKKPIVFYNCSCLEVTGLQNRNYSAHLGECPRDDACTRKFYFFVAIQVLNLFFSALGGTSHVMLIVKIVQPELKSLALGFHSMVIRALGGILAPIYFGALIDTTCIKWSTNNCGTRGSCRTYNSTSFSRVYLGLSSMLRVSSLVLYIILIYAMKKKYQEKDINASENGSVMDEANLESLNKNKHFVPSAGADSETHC

[3] = cited from earlier work
[4] = tested on: OATP1A2; conditions: cited from earlier work
[5] = tested on: HEK293-OATP1B1; test: LDH assay; type: cell-based, human; conditions: 1 h pre-incubation, EVR 0.001–10 µM, SIR 0.01–5 µM
[6] = biological target: T2, OATP1B1; test: Static R-value model for OATP1B1-mediated DDI
[7] = tested on: mTOR C2; test: Immunoblot of phosphorylated AKT; type: cell-based, human; conditions: 1 h pre-incubation: EVR 0.2 µM, SIR 0.5 µM, INK-128 10 µM; vs vehicle control
[8] = biological target: T2, OATP1B1; conditions: substrate E1S; without pre-incubation; cited from earlier work
[9] = biological target: T2, OATP1B1; test: Transport kinetics of OATP1B1-mediated E217βG transport in HEK293 cells; type: cell-based; conditions: co-incubation with 5 µM inhibitor, without pre-incubation
[10] = biological target: T1, OATP1B3; test: Inhibition of OATP1B3-mediated [3H]-CCK-8 transport in HEK293-OATP1B3 cells; type: cell-based; conditions: washing; for OATP1B3-mediated transport ([3H]-CCK-8 accumulation): 1 h pre-incubation alone: EVR 0.2 µM, SIR 0.5 µM, INK-128 10 µM; for OATP1B3-mediated [3H]CCK-8 accumulation: 1 h pre-incubation with EVR 0.2 µM
[11] = tested on: HEK293-OATP1B3; conditions: 1 h pre-incubation, EVR 0.001–10 µM, SIR 0.01–5 µM
[12] = tested on: mTOR C1; test: Immunoblot of phosphorylated p70S6K; type: cell-based, human; conditions: 1 h pre-incubation: EVR 0.2 µM, SIR 0.5 µM, INK-128 10 µM; vs vehicle control
[13] = biological target: T2, OATP1B1; conditions: for OATP1B1-mediated transport ([3H]-E217βG accumulation): 1 h pre-incubation alone: EVR 0.2 µM, SIR 0.5 µM, INK-128 10 µM; for OATP1B1-mediated transport of [3H]-E1S after pre-incubation / OATP1B1-mediated transport of [3H]-rosuvastatin after pre-incubation: 1 h pre-incubation, EVR 0.1 or 0.2–10 µM, SIR 0.1–5 µM, 0.5 min, concentration-dependent, p<0.001; for OATP1B1-mediated transport of [3H]-E1S after pre-incubation: E1S 25 nM; for OATP1B1-mediated transport of [3H]-rosuvastatin after pre-incubation: rosuvastatin 20 nM
[14] = tested on: CYP3A5; conditions: cited from earlier work
[15] = cited from earlier work; remark: listed apart in the source
[16] = human erythrocytes, blood concentration range 5–100 ng/ml; cited from earlier work
[17] = tested on: CYP3A4; conditions: cited from earlier work
[18] = tested on: P-gp; conditions: Caco-2 monolayers; cited from earlier work
[19] = from co-incubation IC50, rosuvastatin
[20] = from pre+co-incubation IC50, E217βG
[21] = from pre+co-incubation IC50, rosuvastatin
[22] = IC50, [3H]-E1S (25 nM, 0.5 min), co-incubation
[23] = IC50, [3H]-E1S (25 nM, 0.5 min), pre+co-incubation (1 h pre-incubation)
[24] = IC50, [3H]-E217βG (1 µM, 2 min), co-incubation
[25] = IC50, [3H]-E217βG (1 µM, 2 min), pre+co-incubation (1 h pre-incubation)
[26] = IC50, [3H]-rosuvastatin (20 nM, 0.5 min), co-incubation
[27] = IC50, [3H]-rosuvastatin (20 nM, 0.5 min), pre+co-incubation (1 h pre-incubation)

Question: With cholecystokinin 8 [CCK-8] as the molecule, how does the Km [1] read?
Answer: 3.8 µM

Question: With `C[C@]12CC[C@@H]3c4ccc(O)cc4CC[C@H]3[C@@H]1CC[C@@H]2O[C@@H]1O[C@H](C(=O)O)[C@@H](O)[C@H](O)[C@H]1O` [E217βG, estradiol 17 β-D-glucuronide] as the molecule, how does the Km [2] read?
Answer: 8.29 µM

Question: With `CO[C@H]1C[C@@H]2CC[C@@H](C)[C@@](O)(O2)C(=O)C(=O)N2CCCC[C@H]2C(=O)O[C@H]([C@H](C)C[C@@H]2CC[C@@H](O)[C@H](OC)C2)CC(=O)[C@H](C)/C=C(\C)[C@@H](O)[C@@H](OC)C(=O)[C@H](C)C[C@H](C)/C=C/C=C/C=C/1C` [SIR, sirolimus] as the molecule, how does the “time to steady state” value ([3]; multiple twice daily doses of 0.5–6.5 mg/m^2, stable renal transplant patients) read?
Answer: 5 to 7 days

Question: What about the “inhibition of OATP1A2” value [4] of the same molecule?
Answer: inhibit

Question: And the “toxicity (LDH assay)” value [5]?
Answer: negligible toxicity

Question: What about the R [6] of the same molecule?
Answer: 1.00 (1.00–1.01)

Question: And the R [6, 19]?
Answer: 1.00 (1.00–1.03)

Question: And the R [6, 20]?
Answer: 1.01 (1.01–1.02)

Question: What about the R [6, 21] of the same molecule?
Answer: 1.01 (1.01–1.03)

Question: And the R ([6]; from the previously published co-incubation IC50 (E1S, ref 24))?
Answer: 1.00

Question: And the “phosphorylation of AKT at S473” value [7]?
Answer: did not inhibit

Question: What about the IC50 [8] of the same molecule?
Answer: 9.8 ± 1.1 µM

Question: What about the “effect on Vmax of OATP1B1” value [9] of the same molecule?
Answer: 1.2–1.7 fold vs. CTL

Question: What about the “increase of Km of OATP1B1” value [9] of the same molecule?
Answer: 6–10 fold

Question: What about the “OATP1B3-mediated transport ([3H]-CCK-8 accumulation)” value [10] of the same molecule?
Answer: 0.49 ± 0.03 fold of control

Question: What about the “toxicity (LDH assay)” value [11] of the same molecule?
Answer: negligible toxicity

Question: And the “amount of phosphorylated p70S6K at T389” value [12]?
Answer: markedly reduced

Question: And the “OATP1B1-mediated transport ([3H]-E217βG accumulation)” value ([13]; washing)?
Answer: 0.60 ± 0.05 fold of control

Question: And the “OATP1B1-mediated transport of [3H]-E1S after pre-incubation” value [13]?
Answer: significantly decreased

Question: And the “OATP1B1-mediated transport of [3H]-rosuvastatin after pre-incubation” value [13]?
Answer: significantly decreased

Question: What about the IC50 [13, 22] of the same molecule?
Answer: 830 ± 100 nM

Question: What about the IC50 [13, 23] of the same molecule?
Answer: 650 ± 120 nM

Question: What about the IC50 [13, 24] of the same molecule?
Answer: 640 ± 160 nM

Question: What about the IC50 [13, 25] of the same molecule?
Answer: 220 ± 40 nM

Question: What about the IC50 [13, 26] of the same molecule?
Answer: 560 ± 300 nM

Question: And the IC50 [13, 27]?
Answer: 320 ± 110 nM

Question: With `CC(C)n1nc(-c2ccc3oc(N)nc3c2)c2c(N)ncnc21` [INK-128] as the molecule, how does the “phosphorylation of AKT at S473” value [7] read?
Answer: markedly reduced

Question: What about the “OATP1B3-mediated transport ([3H]-CCK-8 accumulation)” value [10] of the same molecule?
Answer: did not significantly affect

Question: What about the “amount of phosphorylated p70S6K at T389” value [12] of the same molecule?
Answer: markedly reduced

Question: And the “OATP1B1-mediated transport ([3H]-E217βG accumulation)” value ([13]; washing)?
Answer: did not significantly affect

Question: With `C[C@]12CC[C@@H]3c4ccc(OS(=O)(=O)O)cc4CC[C@H]3[C@@H]1CCC2=O` [E1S, estrone-3-sulfate] as the molecule, how does the Km [2] read?
Answer: 0.46 µM

Question: Which results are given for `CO[C@H]1C[C@@H]2CC[C@@H](C)[C@@](O)(O2)C(=O)C(=O)N2CCCC[C@H]2C(=O)O[C@H]([C@H](C)C[C@@H]2CC[C@@H](OCCO)[C@H](OC)C2)CC(=O)[C@H](C)/C=C(\C)[C@@H](O)[C@@H](OC)C(=O)[C@H](C)C[C@H](C)/C=C/C=C/C=C/1C` [EVR, everolimus]?
Answer: Ki ([14]; CYP3A5): 90 nM; fu,mic [14]: 0.14; Vss [3]: 1.55 (CV 36.0%) L/kg; steady-state AUC vs single dose AUC [3]: approximately 1.5 fold higher; time to steady state ([3]; multiple doses, 10 mg daily): around 7 days; inhibition of OATP1A2 [4]: inhibit; toxicity (LDH assay) [5]: negligible toxicity; R [6, 19]: 1.03 (1.02–1.09); R [6, 20]: 1.19 (1.16–1.26); R [6, 21]: 1.23 (1.10–1.42); phosphorylation of AKT at S473 [7]: did not inhibit; Compound type [15]: Neutral; IC50 [8]: 4.1 ± 1.1 µM; erythrocyte binding [16]: approximately 85%; effect on Vmax of OATP1B1 [9]: 1.2–1.7 fold vs. CTL; increase of Km of OATP1B1 [9]: 6–10 fold; Ki ([17]; CYP3A4): 90 nM; fu,mic [17]: 0.14; OATP1B3-mediated transport ([3H]-CCK-8 accumulation) [10]: 0.60 ± 0.03 fold of control; OATP1B3-mediated [3H]CCK-8 accumulation ([10]; 4 h in EVR-free medium): 0.76 ± 0.04 fold of CTL; OATP1B3-mediated [3H]CCK-8 accumulation ([10]; 6 h in EVR-free medium): 0.73 ± 0.04 fold of CTL; OATP1B3-mediated [3H]CCK-8 accumulation ([10]; 22 h in EVR-free medium): 0.81 ± 0.06 fold of CTL; OATP1B3-mediated transport of [3H]CCK-8 ([10]; after 1 h pre-incubation with EVR 0.2 µM): 0.76 ± 0.05 fold of control; toxicity (LDH assay) [11]: negligible toxicity; basolateral-to-apical vs apical-to-basolateral transport [18]: ~ 20 fold; amount of phosphorylated p70S6K at T389 [12]: markedly reduced; Ki [13]: 22 nM; OATP1B1-mediated transport ([3H]-E217βG accumulation) ([13]; washing): 0.67 ± 0.02 fold of control; OATP1B1-mediated rosuvastatin accumulation ([13]; 1 h pre-incubation with EVR 0.2 µM, washing, 4 h in fresh EVR-free medium): 0.87 ± 0.03 fold of CTL; OATP1B1-mediated transport of [3H]-E1S after pre-incubation [13]: significantly decreased; OATP1B1-mediated transport of [3H]-rosuvastatin after pre-incubation [13]: significantly decreased; IC50 [13, 22]: 610 ± 80 nM; IC50 [13, 23]: 160 ± 20 nM; IC50 [13, 24]: 480 ± 70 nM; IC50 [13, 25]: 230 ± 60 nM; IC50 [13, 26]: 1580 ± 920 nM; IC50 [13, 27]: 190 ± 70 nM; OATP1B1-mediated transport of [3H]rosuvastatin ([13]; after 1 h pre-incubation with EVR 0.2 µM, washing): 0.54 ± 0.07 fold of control
